From patent publication US9896445B2, “Heterocyclic inhibitors of ERK1 and ERK2 and their use in the treatment of cancer” (Asana Biosciences, LLC, priority 2015, dated 2018)
pIC50: −log10 of the molar value. Counter-ions that a name gives are not always drawn.

Columns and labels:
ERK1 = biological target: T1, ERK1 (Homo sapiens, UniProt P27361); assay: ERK1 HTRF (biochemical) assay
T1 construct: purchased Jubilant Biosys
Description: ERK1 and ERK2 HTRF (Biochemical) Assays
These assays employed a homogeneous time resolved fluorescence (HTRF) technique. […] The plate was incubated at room temperature for 60 min with shaking. […] The IC50 values (half maximal inhibitory concentration values) were subsequently determined using a sigmoidal dose-response curve (variable slope) in GraphPad Prism® 5 software.

ERK2 = biological target: T2, ERK2 (Homo sapiens, UniProt P28482); assay: ERK2 HTRF (biochemical) assay
T2 construct: purchased Jubilant Biosys
Method in brief: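 Compounds were tested as half-log dilutions from 0.0005 to 10 uM in Tris pH 7.5/MgCl2 buffer, with a substrate mix of 1 uM biotin-MBP peptide and 24 uM ATP and an enzyme mix of 25 nM ERK2. Reaction ran 60 min at room temperature. Phospho-MBP was detected by HTRF (Eu-anti-phospho-MBP/SA-APC, 665/620 nm), and IC50 was fitted with a variable-slope sigmoidal curve.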

T1 sequence (P27361 whole entry): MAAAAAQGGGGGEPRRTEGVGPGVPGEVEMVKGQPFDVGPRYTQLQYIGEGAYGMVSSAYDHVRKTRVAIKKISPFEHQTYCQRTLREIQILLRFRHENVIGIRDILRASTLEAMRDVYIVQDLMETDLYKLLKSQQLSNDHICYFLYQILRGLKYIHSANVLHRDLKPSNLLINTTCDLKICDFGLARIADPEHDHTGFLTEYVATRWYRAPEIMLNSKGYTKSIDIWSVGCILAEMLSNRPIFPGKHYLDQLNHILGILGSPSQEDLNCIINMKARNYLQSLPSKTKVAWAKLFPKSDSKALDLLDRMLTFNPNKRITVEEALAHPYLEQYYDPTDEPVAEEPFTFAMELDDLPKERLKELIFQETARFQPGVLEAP
T2 sequence (P28482 whole entry): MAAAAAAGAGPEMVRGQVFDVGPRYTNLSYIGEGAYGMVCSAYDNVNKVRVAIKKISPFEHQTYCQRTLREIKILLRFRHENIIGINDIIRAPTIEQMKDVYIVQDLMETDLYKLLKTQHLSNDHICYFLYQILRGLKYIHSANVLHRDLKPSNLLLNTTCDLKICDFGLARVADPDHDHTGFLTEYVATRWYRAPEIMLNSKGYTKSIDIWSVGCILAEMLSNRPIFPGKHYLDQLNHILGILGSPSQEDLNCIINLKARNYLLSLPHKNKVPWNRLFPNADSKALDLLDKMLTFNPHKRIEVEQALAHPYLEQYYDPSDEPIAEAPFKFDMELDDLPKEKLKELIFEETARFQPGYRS

pIC50 (ERK1; HTRF)	pIC50 (ERK2; HTRF)	pIC50 (ERK1; HTRF biochemical assay)	pIC50 (ERK2; HTRF biochemical assay)	Structure (SMILES)
> 7.30	≥ 7.30			Cc1cnc(NC2CCOCC2)nc1-n1cnc(C(=O)NC(CN)c2ccc(Cl)s2)c1 (stereo not drawn) [Example 274, N-(2-amino-1-(5-chlorothiophen-2-yl)ethyl)-1-(5-methyl-2-((tetrahydro-2H-pyran-4-yl)amino)-pyrimidin-4-yl)-1H-imidazole-4-carboxamide]
> 7.30	≥ 7.30			Cc1cnc(Nc2ccc3c(c2)OCO3)nc1-n1ccc(C(=O)N[C@H](CO)c2ccc(F)c(Cl)c2)c1 [Compound 87]
		> 7.30	≥ 7.30	Cc1cnc(Nc2ccc(F)cc2Cl)nc1-n1cnc(C(=O)NCc2cccc(Cl)c2CO)c1 [Example 329, N-(3-chloro-2-(hydroxymethyl)-benzyl)-1-(2-((2-chloro-4-fluoro-phenyl)amino)-5-methylpyrimidin-4-yl)-1H-imidazole-4-carboxamide]
> 7.30	≥ 7.30			Cc1cnc(Nc2ccc(F)cc2)nc1-n1ccc(C(=O)NC(CO)c2ccccc2)c1 (stereo not drawn) [Compound 114, 1-(2-((4-fluoro-phenyl)amino)-5-methylpyrimidin-4-yl)-N-(2-hydroxy-1-phenylethyl)-1H-pyrrole-3-carboxamide]
> 7.30	≥ 7.30			O=C(NC(CO)c1ccccc1)c1ccn(-c2nc(Nc3ccccc3Cl)ncc2F)c1 (stereo not drawn) [Compound 67, 1-(2-((2-chloro-phenyl)amino)-5-fluoropyrimidin-4-yl)-N-(2-hydroxy-1-phenylethyl)-1H-pyrrole-3-carboxamide]
> 7.30	≥ 7.30			CC[C@@H](CO)Nc1ncc(C)c(-n2ccc(C(=O)NC(CO)c3ccccc3)c2)n1 (stereo partly drawn) [Compound 75, N-(2-hydroxy-1-phenylethyl)-1-(2-(((S)-1-hydroxy-butan-2-yl)amino)-5-methylpyrimidin-4-yl)-1H-pyrrole-3-carboxamide]
6.30 to 7.00	≥ 7.30			Cc1cnc(Nc2ccc(F)cc2Cl)nc1-n1cc(NC(=O)NC(CO)c2cccc(Cl)c2)cn1 (stereo not drawn) [Compound 36, 1-(1-(2-((2-chloro-4-fluorophenyl)-amino)-5-methyl-pyrimidin-4-yl)-1H-pyrazol-4-yl)-3-(1-(3-chlorophenyl)-2-hydroxyethyl)urea]
> 7.30	≥ 7.30			Cc1cnc(Nc2ccc3c(c2)OC(F)(F)O3)nc1-n1ccc(C(=O)NC(CO)c2cccc(Cl)c2)c1 (stereo not drawn) [Compound 62, N-(1-(3-chloro-phenyl)-2-hydroxyethyl)-1-(2-((2,2-difluoro-benzo[d][1,3]dioxol-5-yl)amino)-5-methylpyrimidin-4-yl)-1H-pyrrole-3-carboxamide]
> 7.30	≥ 7.30			Cc1cnc(NC2CCCCC2)nc1-n1cnc(C(=O)NC(CO)c2cccc(Cl)c2)c1 (stereo not drawn) [Compound 226, N-(1-(3-chloro-phenyl)-2-hydroxy-ethyl)-1-(2-(cyclohexylamino)-5-methylpyrimidin-4-yl)-1H-imidazole-4-carboxamide]
> 7.30	≥ 7.30			COc1ccc(Nc2ncc(C)c(-n3ccc(C(=O)NC(CO)c4cccc(Cl)c4)c3)n2)cc1OCCCN(C)C (stereo not drawn) [Compound 184, N-(1-(3-chloro-phenyl)-2-hydroxy-ethyl)-1-(2-((3-(3-(dimethylamino)propoxy)-4-methoxy-phenyl)amino)-5-methylpyrimidin-4-yl)-1H-pyrrole-3-carboxamide]
		> 7.30	≥ 7.30	CC[C@H](CO)Nc1ncc(C)c(-n2cnc(C(=O)NCc3cccc(Cl)c3CO)c2)n1 [Example 336, (R)-N-(3-chloro-2-(hydroxymethyl)-benzyl)-1-(2-((1-hydroxybutan-2-yl)amino)-5-methylpyrimidin-4-yl)-1H-imidazole-4-carboxamide]
6.30 to 7.00	6.30 to 7.00			Cc1cnc(NC2(CO)CC2)nc1-n1ccc(C(=O)NC(CO)c2ccc(F)c(Cl)c2)c1 (stereo not drawn) [Compound 203, N-(1-(3-chloro-4-fluorophenyl)-2-hydroxyethyl)-1-(2-((1-(hydroxy-methyl)cyclopropyl)amino)-5-methyl-pyrimidin-4-yl)-1H-pyrrole-3-carboxamide]
> 7.30	≥ 7.30			Cc1cnc(Nc2ccc(F)cc2Cl)nc1-n1ccc(C(=O)N[C@H](CO)c2cccc(Cl)c2)c1 [Compound 29, (S)-1-(2-((2-Chloro-4-fluorophenyl)amino)-5-methylpyrimidin-4-yl)-N-(1-(3-chlorophenyl)-2-hydroxyethyl)-1H-pyrrole-3-carboxamide]
> 7.30	≥ 7.30			Cc1cnc(NC2CCCCC2)nc1-n1ccc(C(=O)NC(CO)c2cccc(Cl)c2)c1 (stereo not drawn) [Compound 195, N-(1-(3-chlorophenyl)-2-hydroxyethyl)-1-(2-(cyclohexylamino)-5-methylpyrimidin-4-yl)-1H-pyrrole-3-carboxamide]
> 7.30	7.00 to 7.30			Cc1cnc(NCC2CCCO2)nc1-n1ccc(C(=O)N[C@H](CO)c2cccc(Cl)c2)c1 (stereo partly drawn) [Compound 190, N-((S)-1-(3-chlorophenyl)-2-hydroxyethyl)-1-(5-methyl-2-(((tetrahydrofuran-2-yl)methyl)-amino)pyrimidin-4-yl)-1H-pyrrole-3-carboxamide]

Second part, the compound before the results:

Structure (SMILES)	pIC50 (ERK1; HTRF)	pIC50 (ERK2; HTRF)	pIC50 (ERK1; HTRF biochemical assay)	pIC50 (ERK2; HTRF biochemical assay)
CCC(=O)OCc1c(Cl)cccc1CNC(=O)c1cn(-c2nc(NC3CCOCC3)ncc2C)cn1 [Example 348, 2-chloro-6-((1-(5-methyl-2-((tetrahydro-2H-pyran-4-yl)amino)-pyrimidin-4-yl)-1H-imidazole-4-carboxamido)-methyl)benzyl-propionate]			> 7.30	≥ 7.30
Cc1cnc(Nc2ccc3c(c2)OC(F)(F)O3)cc1-n1cnc(C(=O)NC(CO)c2cccc(Cl)c2)c1 (stereo not drawn) [Compound 90, N-(1-(3-chlorophenyl)-2-hydroxyethyl)-1-(2-((2,2-difluoro-benzo[d][1,3]dioxol-5-yl)amino)-5-methylpyridin-4-yl)-1H-imidazole-4-carboxamide]	6.30 to 7.00	≥ 7.30		
Cc1cnc(NC2CC2)nc1-n1cc(NC(=O)NC(CO)c2cccc(Cl)c2)cn1 (stereo not drawn) [Compound 28, 1-(1-(3-chloro-phenyl)-2-hydroxy-ethyl)-3-(1-(2-(cyclopropyl-amino)-5-methylpyrimidin-4-yl)-1H-pyrazol-4-yl)urea]	7.00 to 7.30	7.00 to 7.30		
Cc1cnc(Nc2ccc3[nH]cc(C4=CCNCC4)c3c2)nc1-n1ccc(C(=O)NC(CO)c2cccc(Cl)c2)c1 (stereo not drawn) [Compound 209, N-(1-(3-chlorophenyl)-2-hydroxyethyl)-1-(5-methyl-2-((3-(1,2,3,6-tetrahydro-pyridin-4-yl)-1H-indol-5-yl)amino)-pyrimidin-4-yl)-1H-pyrrole-3-carboxamide hydrochloride]	> 7.30	≥ 7.30		
Cc1cnc(NC2CC(F)(F)C2)nc1-n1cnc(C(=O)NCc2cccc(Cl)c2CO)c1 [Example 273, N-(3-chloro-2-(hydroxymethyl)benzyl)-1-(2-((3,3-difluorocyclobutyl)amino)-5-methyl-pyrimidin-4-yl)-1H-imidazole-4-carboxamide]	> 7.30	≥ 7.30		
COc1cc(Nc2ncc(C)c(-n3ccc(C(=O)N[C@H](CO)c4ccc(F)c(Cl)c4)c3)n2)cc(OC)c1OC [Compound 126, (S)-N-(1-(3-chloro-4-fluorophenyl)-2-hydroxyethyl)-1-(5-methyl-2-((3,4,5-trimethoxyphenyl)amino)pyrimidin-4-yl)-1H-pyrrole-3-carboxamide]	> 7.30	≥ 7.30		
Cc1cnc(Nc2ccc3c(c2)OCO3)nc1-n1ccc(C(=O)NC(CO)c2cccnc2)c1 (stereo not drawn) [Compound 103, 1-(2-(benzo[d][1,3]dioxol-5-ylamino)-5-methylpyrimidin-4-yl)-N-(2-hydroxy-1-(pyridin-3-yl)ethyl)-1H-pyrrole-3-carboxamide]	6.30 to 7.00	≥ 7.30		
Cc1cnc(Nc2ccc3c(c2)OC(F)(F)O3)cc1-n1ccc(C(=O)NC(CO)c2cccc(Cl)c2)c1 (stereo not drawn) [Compound 92, N-(1-(3-chlorophenyl)-2-hydroxyethyl)-1-(2-((2,2-difluoro-benzo[d][1,3]dioxol-5-yl)amino)-5-methylpyridin-4-yl)-1H-pyrrole-3-carboxamide]	> 7.30	≥ 7.30		
Cc1cnc(Nc2ccc3c(c2)OC(F)(F)O3)nc1-n1ccc(C(=O)NC(CN)c2cccc(Cl)c2)c1 (stereo not drawn) [Compound 136, N-(2-amino-1-(3-chlorophenyl)ethyl)-1-(2-((2,2-difluorobenzo[d][1,3]dioxol-5-yl)amino)-5-methylpyrimidin-4-yl)-1H-pyrrole-3-carboxamide]	7.00 to 7.30	≥ 7.30		
Cc1ccc(C(CO)NC(=O)c2cn(-c3nc(NC4CCOCC4)ncc3C)cn2)s1 (stereo not drawn) [Example 261, N-(2-hydroxy-1-(5-methylthiophen-2-yl)ethyl)-1-(5-methyl-2-((tetrahydro-2H-pyran-4-yl)amino)-pyrimidin-4-yl)-1H-imidazole-4-carboxamide]	> 7.30	≥ 7.30		
Cc1cnc(Nc2ccc(F)c(C(=O)N3CCN(C)CC3)c2)nc1-n1ccc(C(=O)NC(CO)c2cccc(Cl)c2)c1 (stereo not drawn) [Compound 179, N-(1-(3-chlorophenyl)-2-hydroxyethyl)-1-(2-((4-fluoro-3-(4-methylpiperazine-1-carbonyl)phenyl)amino)-5-methyl-pyrimidin-4-yl)-1H-pyrrole-3-carboxamide]	> 7.30	≥ 7.30		
O=C(Nc1cnn(-c2ccnc(Nc3ccccc3Cl)n2)c1)N[C@H](CO)c1cccc(Cl)c1 [Compound 1, (S)-1-(1-(3-chlorophenyl)-2-hydroxyethyl)-3-(1-(2-((2-chloro-phenyl)amino)pyrimidin-4-yl)-1H-pyrazol-4-yl)urea]	> 7.30	≥ 7.30		
